Article PMC12867150, “A fungi-derived cyclic peptide enhances Th9-mediated antitumor immunity by targeting ZAP70 and SREBP1” (The Journal of Clinical Investigation, 2025)
Where “and” joins values, the source holds several entries; their conditions need not be identical. Equal entries are not always repeated.

Assays:
Treg cells = experiment: Treg polarization, Foxp3 by flow cytometry (Figure 1I); format: cell-based, mouse
Protocol: (§1) Naive CD4^+ T cells were isolated from the spleens of C57BL/6J or CD45.1^+ OT-II mice using the MojoSort Mouse CD4 Naive T Cell Isolation Kit (BioLegend, catalog 480040), following the manufacturer’s protocol. Purified cells were cultured in RPMI-1640 medium supplemented with 10% FBS, 1% penicillin-streptomycin, and 0.1% β-mercaptoethanol (Gibco, catalog 21985023).
(§2) T cell polarization was initiated under plate-bound anti-CD3 (2 μg/mL, clone 17A2, BioXCell, catalog BE0002) and soluble anti-CD28 (1 μg/mL, clone 37.51, BioXCell, catalog BE0015-1) stimulation, with the addition of cytokines and neutralizing antibodies specific to each subset. For Th9 cells, these included IL-4 (10 ng/mL, Peprotech, catalog 400-04), TGF-β (1 ng/mL, EPOTO Biotech, catalog HF-2021), anti–IL-12 (5 μg/mL, clone C17.8, BioXCell, catalog BE0051), and anti–IFN-γ (10 μg/mL, clone XMG1.2, BioXCell, catalog BE0055); for Th1 cells, these included IL-12 (10 ng/mL, GenScript, catalog Z03211-50) and anti–IL-4 (5 μg/mL, clone 11B11, BioXCell, catalog BE0045); for Th2 cells, these included IL-4 (50 ng/mL), anti–IFN-γ (20 μg /mL), anti–IL-12 (5 μg/mL), Th17 cells: IL-6 (20 ng/mL, EPOTO Biotech, catalog MF-1006), TGF-β (1 ng/mL), IL-1β (10 ng/mL, Peprotech, catalog AF-211-11B), anti–IFN-γ (10 μg/mL), anti–IL-12 (5 μg/mL), and anti–IL-4 (5 μg/mL); and for Tregs, these included TGF-β (3 ng/mL). […]

gene sets in Th9 cells = experiment: GSEA / pathway enrichment of RNA-seq data; format: cell-based, mouse; conditions: result in words
Protocol: GSEA was performed using the clusterProfiler R package (v4.12.6), with curated gene sets obtained from the Gene Ontology and Kyoto Encyclopedia of Genes and Genomes databases. Enrichment plots were generated using the GseaVis R package (v0.1.0) to facilitate data visualization.

Th1 cells = experiment: Th1 polarization, IFN-γ by flow cytometry (Figure 1F); format: cell-based, mouse
Protocol: as §1, §2

human Th9 CAR T cells = experiment: IL-9 in human Th9 CAR T cells (S9D-E); format: cell-based; conditions: for IL-9 expression in human Th9 CAR-T cells: Supplemental Figure 9E; for IL-9 gate number: representative flow plot, Figure S9D
Source text: Details regarding staining panels (human and mouse), reagents (including clones and catalog numbers), acquisition settings, compensation/controls, and analysis procedures are provided in Supplemental Methods. […]
(C) Flow-cytometric analysis of infection efficiency in Th9 cells transduced with a CD19-directed CAR lentivirus. (D and E) Flow-cytometric analysis of IL-9 expression in human Th9 CAR-T cells on days 5 and 6 of in vitro differentiation, showing representative plots (D) and quantification (E) (n = 3). […]
(H) and quantification (I) (n = 5 mice per group). Statistical analysis was performed using one-way ANOVA with Tukey’s post hoc test (A and B), or two-tailed unpaired Student’s t-test (E–G, and I). Repeated data are presented as mean ± SEM. *p < 0.05, […]
(also on this page, place not known: TP cells ANOV A 30IL-9+ cells (%) Fato Fato Fato Fato A SSC GzmB CtrlEpA MFIofMitoTracker (×102) GF NormalizedATPlevel CtrlEpA 4MFI of Mito Tracker (×105) CtrlEpA0 GzmB+ cells (%) CD4 10 20 IL-9+ cells (%) Day60 10 20 30 Ctrl) […]

[1] = EpA 10 μM, individual replicates, n = 4

anteiso-C15 Leu7 surfactin [EpA]
Foxp3 expression under Treg polarization (Treg cells; [1]): 47.3 and 45.9 and 45.6 and 47.5
effect on Treg polarization (Treg cells; result in words): did not affect
glycolytic and carbon metabolism pathways (gene sets in Th9 cells): significant enrichment
lipid-related pathways (gene sets in Th9 cells): markedly downregulated
oxidative phosphorylation-related gene sets (gene sets in Th9 cells): upregulation
IFN-γ expression under Th1 polarization (Th1 cells; [1]): 80 and 84.2 and 74.8 and 80.3
effect on Th1 polarization (Th1 cells; result in words): did not affect
IL-9 expression in human Th9 CAR-T cells (human Th9 CAR T cells; Day5, replicate 1): 27.7
IL-9 expression in human Th9 CAR-T cells (human Th9 CAR T cells; Day5, replicate 2): 21.8
IL-9 expression in human Th9 CAR-T cells (human Th9 CAR T cells; Day5, replicate 3): 25.1
IL-9 gate number (human Th9 CAR T cells; Day5): 24.8
IL-9 expression in human Th9 CAR-T cells (human Th9 CAR T cells; Day6, replicate 1): 6.55
IL-9 expression in human Th9 CAR-T cells (human Th9 CAR T cells; Day6, replicate 2): 6.68
IL-9 expression in human Th9 CAR-T cells (human Th9 CAR T cells; Day6, replicate 3): 6.84
IL-9 gate number (human Th9 CAR T cells; Day6): 6.7
IL-9 production, Th9 CAR T (human Th9 CAR T cells; result in words): increased IL-9 production
